Laboratory results from BindingDB's records for doi:10.1016/j.bioorg.2017.04.006 (China Pharmaceutical University, 2017).

Key:
[1] = target: Lysine-specific histone demethylase 1A (Homo sapiens, UniProt O60341); assay: LSD1 Screening Assay; conditions: pH 7.5; 25 °C
Description: The LSD1 screening biochemical assay was performed by Shanghai ChemPartner Co. Ltd and the detailed protocol was shown as followed. The AlphaLISA assay of LSD1 (BPS Bioscience) was performed in modified Tris buffer (pH 7.5). Briefly, the compoundsin DMSO were transferred to assay plate by Echo 550, followed by pre-incubating with enzyme (final concentration is 5 nM) for 15 min at room temperature. The initiation of reactions were added H3K4me2 peptide solution (final concentration is 100 nM) to the reaction mixtures and then incubated for 60 min at roomtemperature. The reactions were terminated by the addition of the acceptor and donor beads mix (PerkinElmer) and incubated for 60 min at room temperature, and finally read on EnSpire (PerkinElmer) in Alpha Mode.

[2] = target: T1, Amine oxidase [flavin-containing] B (Homo sapiens, UniProt P27338); assay: MAO-A and MAO-B Assay
T1 sequence (P27338 whole entry): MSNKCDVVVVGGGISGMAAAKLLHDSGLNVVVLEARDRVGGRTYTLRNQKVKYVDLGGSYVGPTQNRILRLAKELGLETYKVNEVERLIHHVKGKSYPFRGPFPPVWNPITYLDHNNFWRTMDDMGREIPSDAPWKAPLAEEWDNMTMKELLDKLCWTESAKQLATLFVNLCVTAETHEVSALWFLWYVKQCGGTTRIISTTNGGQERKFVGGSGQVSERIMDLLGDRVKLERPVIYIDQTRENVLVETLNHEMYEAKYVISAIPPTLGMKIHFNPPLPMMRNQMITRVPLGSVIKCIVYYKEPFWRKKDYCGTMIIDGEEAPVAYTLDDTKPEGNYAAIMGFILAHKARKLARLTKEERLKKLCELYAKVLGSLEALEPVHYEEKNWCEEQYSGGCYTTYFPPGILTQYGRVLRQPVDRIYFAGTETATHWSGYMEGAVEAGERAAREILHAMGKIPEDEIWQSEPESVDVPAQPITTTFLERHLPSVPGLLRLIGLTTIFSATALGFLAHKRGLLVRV
Excerpt: (§1) The MAO-A and MAO-B is purchased from Active Motif (Cat#31502, Cat#31503). Biochemical Kit is purchased from Promega (MAO-Glo Assay, V1402). The inhibition of selectivity assay was preformed in light of the manufacturer's protocol.

[3] = target: T2, Amine oxidase [flavin-containing] A (Homo sapiens, UniProt P21397); assay: MAO-A and MAO-B Assay
T2 sequence (P21397 whole entry): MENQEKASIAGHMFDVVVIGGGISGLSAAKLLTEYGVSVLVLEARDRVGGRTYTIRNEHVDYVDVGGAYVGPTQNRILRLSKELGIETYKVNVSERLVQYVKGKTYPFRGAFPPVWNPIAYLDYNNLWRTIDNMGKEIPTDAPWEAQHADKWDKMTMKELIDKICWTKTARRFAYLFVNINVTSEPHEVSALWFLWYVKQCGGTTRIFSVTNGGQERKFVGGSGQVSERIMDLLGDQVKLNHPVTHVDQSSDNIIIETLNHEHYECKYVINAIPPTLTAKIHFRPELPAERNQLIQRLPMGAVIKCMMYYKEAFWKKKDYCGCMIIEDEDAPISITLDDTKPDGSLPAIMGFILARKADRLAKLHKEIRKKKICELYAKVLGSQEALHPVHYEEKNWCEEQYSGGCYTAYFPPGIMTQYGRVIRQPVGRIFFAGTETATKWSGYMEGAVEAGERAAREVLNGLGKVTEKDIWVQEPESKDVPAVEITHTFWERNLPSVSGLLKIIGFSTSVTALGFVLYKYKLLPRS
Excerpt: as §1

SMILES	IC50 [1] [µM]	IC50 [2] [µM]	IC50 [3] [µM]
C/C(=N\NC(=O)c1cccc(S(=O)(=O)N2CCOCC2)c1)c1cc(Cl)ccc1O [US8987335, 12]	0.011	–	–
CN(CC(=O)Nc1cccc(S(=O)(=O)N2CCOCC2)c1)c1cc(Cl)ccc1O [2-((5-Chloro-2-hydroxyphenyl)(methyl)amino)-N-(3-(morpholinosulfonyl)phe-nyl)acetamide (7b)]	9.5	65.7	187
CN(CC(=O)Nc1cccc(S(=O)(=O)N2CCCCC2)c1)c1cc(Cl)ccc1O [2-((5-Chloro-2-hydroxyphenyl)(methyl)amino)-N-(3-(piperidin-1-ylsulfonyl)phenyl)acetamide (7g)]	11	–	–
CN(C)S(=O)(=O)c1cccc(NC(=O)CNc2cc(Cl)ccc2O)c1 [2-((5-Chloro-2-hydroxyphenyl)amino)-N-(3-(N,N-dimethylsulfamoyl)phenyl)-acetamide (7d)]	14	–	–
CN(CC(=O)Nc1cccc(S(=O)(=O)N(C)C)c1)c1cc(Cl)ccc1O [2-((5-Chloro-2-hydroxyphenyl)(methyl)amino)-N-(3-(N,N-dimethylsulfamoyl)phenyl)acetamide (7e)]	13	–	–
CC(Nc1cc(Cl)ccc1O)C(=O)Nc1cccc(S(=O)(=O)N2CCOCC2)c1 (stereo not drawn) [2-((5-Chloro-2-hydroxyphenyl)amino)-N-(3-(morpholinosulfonyl)phenyl)propanamide (7c)]	13	–	–
O=C(CNc1cc(Cl)ccc1O)Nc1cccc(S(=O)(=O)N2CCOCC2)c1 [2-((5-Chloro-2-hydroxyphenyl)amino)-N-(3-(morpholinosulfonyl)phenyl)acetamide (7a)]	13	–	–
CC(Nc1cc(Cl)ccc1O)C(=O)Nc1cccc(S(=O)(=O)N2CCCCC2)c1 (stereo not drawn) [2-((5-Chloro-2-hydroxyphenyl)amino)-N-(3-(piperidin-1-ylsulfonyl)phenyl)propanamide (7h)]	6.9	102	114
CC(Nc1cc(Cl)ccc1O)C(=O)Nc1cccc(S(=O)(=O)N(C)C)c1 (stereo not drawn)	12	–	–
